Numbers after ± are expanded uncertainties.
Tests used:
[1] = molar heat capacity at constant pressure; settings: 101.33 kPa, Liquid, DSC
[2] = 101.33 kPa, Liquid, Laser flash apparatus

CCCCCCCCCC(=O)OC [methyl decanoate]
Settings | molar heat capacity at constant pressure, [1] [J/K/mol] | thermal diffusivity, [2] [m2/s]
303.15 K | 384.7 ± 16 | 8.1e-08 ± 4.3e-09
313.15 K | 387.6 ± 16 | 7.99e-08 ± 4.3e-09
323.15 K | 391.8 ± 16 | 7.87e-08 ± 4.2e-09
333.15 K | 396.7 ± 16 | 7.75e-08 ± 4.1e-09
343.15 K | 401.9 ± 16 | 7.64e-08 ± 4.1e-09
353.15 K | 407.3 ± 16 | 7.52e-08 ± 4e-09
363.15 K | 412.4 ± 17 | 7.4e-08 ± 4e-09
373.15 K | 417.2 ± 17 | 7.28e-08 ± 3.9e-09
383.15 K | – | 7.17e-08 ± 3.8e-09
393.15 K | – | 7.05e-08 ± 3.8e-09
403.15 K | – | 6.93e-08 ± 3.7e-09

CCCCCCCCCCCC(=O)OC [methyl dodecanoate]
Settings | molar heat capacity at constant pressure, [1] [J/K/mol] | thermal diffusivity, [2] [m2/s]
303.15 K | 449 ± 18 | 8.27e-08 ± 4.4e-09
313.15 K | 452.8 ± 18 | 8.15e-08 ± 4.3e-09
323.15 K | 457.4 ± 19 | 8.03e-08 ± 4.3e-09
333.15 K | 462.6 ± 19 | 7.91e-08 ± 4.2e-09
343.15 K | 468.4 ± 19 | 7.79e-08 ± 4.2e-09
353.15 K | 474.5 ± 19 | 7.67e-08 ± 4.1e-09
363.15 K | 480.7 ± 20 | 7.55e-08 ± 4e-09
373.15 K | 486.8 ± 20 | 7.43e-08 ± 4e-09
383.15 K | – | 7.3e-08 ± 3.9e-09
393.15 K | – | 7.18e-08 ± 3.8e-09
403.15 K | – | 7.06e-08 ± 3.8e-09
413.15 K | – | 6.94e-08 ± 3.7e-09
423.15 K | – | 6.82e-08 ± 3.7e-09

CCCCCCC(=O)OC [methyl heptanoate]
Settings | molar heat capacity at constant pressure, [1] [J/K/mol] | thermal diffusivity, [2] [m2/s]
303.15 K | 289.2 ± 12 | 7.82e-08 ± 4.2e-09
313.15 K | 292.5 ± 12 | 7.71e-08 ± 4.1e-09
323.15 K | 296.2 ± 12 | 7.59e-08 ± 4.1e-09
333.15 K | 300.1 ± 12 | 7.48e-08 ± 4e-09
343.15 K | 304.3 ± 12 | 7.36e-08 ± 3.9e-09
353.15 K | 308.6 ± 12 | 7.25e-08 ± 3.9e-09
363.15 K | 312.8 ± 13 | 7.14e-08 ± 3.8e-09
373.15 K | 316.9 ± 13 | –

CCCCCC(=O)OC [methyl hexanoate]
Settings | molar heat capacity at constant pressure, [1] [J/K/mol] | thermal diffusivity, [2] [m2/s]
303.15 K | 246.4 ± 10 | 7.76e-08 ± 4.1e-09
313.15 K | 248.8 ± 10 | 7.66e-08 ± 4.1e-09
323.15 K | 251.5 ± 10 | 7.56e-08 ± 4e-09
333.15 K | 254.6 ± 10 | 7.46e-08 ± 4e-09
343.15 K | 257.9 ± 10 | –
353.15 K | 261.5 ± 11 | –
363.15 K | 265.5 ± 11 | –
373.15 K | 269.6 ± 11 | –

CCCCCCCCC(=O)OC [methyl nonanoate]
Settings | molar heat capacity at constant pressure, [1] [J/K/mol] | thermal diffusivity, [2] [m2/s]
303.15 K | 351.7 ± 14 | 8.01e-08 ± 4.3e-09
313.15 K | 354.7 ± 14 | 7.89e-08 ± 4.2e-09
323.15 K | 358.6 ± 15 | 7.78e-08 ± 4.2e-09
333.15 K | 363.1 ± 15 | 7.66e-08 ± 4.1e-09
343.15 K | 367.9 ± 15 | 7.54e-08 ± 4e-09
353.15 K | 372.8 ± 15 | 7.43e-08 ± 4e-09
363.15 K | 377.6 ± 15 | 7.31e-08 ± 3.9e-09
373.15 K | 382 ± 16 | 7.19e-08 ± 3.9e-09
383.15 K | – | 7.08e-08 ± 3.8e-09

CCCCCCCC(=O)OC [methyl octanoate]
Settings | molar heat capacity at constant pressure, [1] [J/K/mol] | thermal diffusivity, [2] [m2/s]
303.15 K | 316.6 ± 13 | 7.92e-08 ± 4.2e-09
313.15 K | 320.5 ± 13 | 7.81e-08 ± 4.2e-09
323.15 K | 324.4 ± 13 | 7.69e-08 ± 4.1e-09
333.15 K | 328.7 ± 13 | 7.57e-08 ± 4e-09
343.15 K | 333.2 ± 14 | 7.46e-08 ± 4e-09
353.15 K | 337.8 ± 14 | 7.34e-08 ± 3.9e-09
363.15 K | 342.8 ± 14 | 7.22e-08 ± 3.9e-09
373.15 K | 347 ± 14 | 7.11e-08 ± 3.8e-09
383.15 K | – | 6.99e-08 ± 3.7e-09

CCCCCCCCCCC(=O)OC [methyl undecanoate]
Settings | molar heat capacity at constant pressure, [1] [J/K/mol] | thermal diffusivity, [2] [m2/s]
303.15 K | 411.4 ± 17 | 8.22e-08 ± 4.4e-09
313.15 K | 415.9 ± 17 | 8.1e-08 ± 4.3e-09
323.15 K | 420.9 ± 17 | 7.98e-08 ± 4.3e-09
333.15 K | 426.1 ± 17 | 7.86e-08 ± 4.2e-09
343.15 K | 431.4 ± 18 | 7.74e-08 ± 4.1e-09
353.15 K | 436.7 ± 18 | 7.62e-08 ± 4.1e-09
363.15 K | 441.8 ± 18 | 7.5e-08 ± 4e-09
373.15 K | 446.5 ± 18 | 7.38e-08 ± 4e-09
383.15 K | – | 7.26e-08 ± 3.9e-09
393.15 K | – | 7.14e-08 ± 3.8e-09
403.15 K | – | 7.02e-08 ± 3.8e-09
413.15 K | – | 6.9e-08 ± 3.7e-09
423.15 K | – | 6.78e-08 ± 3.6e-09
